Experimental data taken from patent publication US10286034B2, “Uses of bremelanotide in therapy for female sexual dysfunction” (Palatin Technologies, Inc., priority 2012, dated 2019).
Marks after values point to notes of the source that are not given here.

Test: Example 1: ambulatory blood pressure monitoring after in-clinic dose
Format: in vivo, human
Details: for Pulse: treatment group difference (from placebo) in mean change: in bpm; for DBP: treatment group difference (from placebo) in mean change / SBP: treatment group difference (from placebo) in mean change: in mmHg (unit assumed); for HR-BP Product: treatment group difference (from placebo) in mean change: in mmHg·bpm (unit assumed)
Description: Ambulatory blood pressure monitoring was conducted following both placebo and randomized treatment group in-clinic administrations. Three periods of ambulatory blood pressure monitoring were included, the first period was from before to 24 hours after a single, in-clinic dose of placebo (to establish a baseline); the second and third periods occurred from before to 24 hours after each of 2 single, in-clinic doses of double-blind treatment, administered within 14 days of each other. Blood samples for pharmacokinetic analysis were collected before and at 0.5, 1.0, and 2.0 hours after each in-clinic bremelanotide single-dose treatment (double-blind only), to permit analysis of concentration-response relationships.
Mean changes in blood pressure were characterized in all subjects based on sequential supervised dosing of single-blind subcutaneous placebo and two doses of randomized study drug. The primary analysis for mean changes was the difference between treatment groups in the change from single-blind placebo to randomized drug (Visit 2 vs. Visits 5/7). There were between 86 to 100 subjects in each dose group.
Although there were an increased number of outliers for maximal changes from baseline in systolic blood pressure in drug-treated patients, the duration of these events was quite limited. The interrogation interval during ambulatory blood pressure monitoring assessments of 15 minutes allowed definition of the maximal duration of such excursions. […] The clinical significance of such changes, if any, is small.

[1] = 0.75 mg SC, interval 0-24 h, V5
[2] = 0.75 mg SC, interval 0-24 h, V7
[3] = 0.75 mg SC, interval 8-24 h, V5
[4] = 0.75 mg SC, interval 8-24 h, V7
[5] = 1.25 mg SC, interval 0-24 h, V5
[6] = 1.25 mg SC, interval 0-24 h, V7
[7] = 1.25 mg SC, interval 8-24 h, V5
[8] = 1.25 mg SC, interval 8-24 h, V7
[9] = 1.75 mg SC, interval 0-24 h, V5
[10] = 1.75 mg SC, interval 0-24 h, V7
[11] = 1.75 mg SC, interval 8-24 h, V5
[12] = 1.75 mg SC, interval 8-24 h, V7

CCCC[C@H](NC(C)=O)C(=O)N[C@H]1CC(=O)NCCCC[C@@H](C(=O)O)NC(=O)[C@H](Cc2c[nH]c3ccccc23)NC(=O)[C@H](CCCNC(=N)N)NC(=O)[C@@H](Cc2ccccc2)NC(=O)[C@H](Cc2c[nH]cn2)NC1=O [bremelanotide, Ac-Nle-cyclo(-Asp-His-D-Phe-Arg-Trp-Lys)-OH]
Pulse: treatment group difference (from placebo) in mean change (0.75 mg SC, interval 0-4 h, V5): −5.2* | DBP: treatment group difference (from placebo) in mean change (0.75 mg SC, interval 0-4 h, V5): 1.5 | SBP: treatment group difference (from placebo) in mean change (0.75 mg SC, interval 0-4 h, V5): 1.8 | HR-BP Product: treatment group difference (from placebo) in mean change (0.75 mg SC, interval 0-4 h, V5): −492.8* | Pulse: treatment group difference (from placebo) in mean change (0.75 mg SC, interval 0-4 h, V7): −4.8* | DBP: treatment group difference (from placebo) in mean change (0.75 mg SC, interval 0-4 h, V7): 0.6 | SBP: treatment group difference (from placebo) in mean change (0.75 mg SC, interval 0-4 h, V7): 1.1 | HR-BP Product: treatment group difference (from placebo) in mean change (0.75 mg SC, interval 0-4 h, V7): −491.9* | Pulse: treatment group difference (from placebo) in mean change [1]: −2.2* | DBP: treatment group difference (from placebo) in mean change [1]: 1.1* | SBP: treatment group difference (from placebo) in mean change [1]: 1.1 | HR-BP Product: treatment group difference (from placebo) in mean change [1]: −187.7 | Pulse: treatment group difference (from placebo) in mean change [2]: −1.6 | DBP: treatment group difference (from placebo) in mean change [2]: 1.3* | SBP: treatment group difference (from placebo) in mean change [2]: 1.5 | HR-BP Product: treatment group difference (from placebo) in mean change [2]: −82.3 | Pulse: treatment group difference (from placebo) in mean change (0.75 mg SC, interval 4-8 h, V5): −6.2* | DBP: treatment group difference (from placebo) in mean change (0.75 mg SC, interval 4-8 h, V5): 1.3 | SBP: treatment group difference (from placebo) in mean change (0.75 mg SC, interval 4-8 h, V5): 0.9 | HR-BP Product: treatment group difference (from placebo) in mean change (0.75 mg SC, interval 4-8 h, V5): −676.5* | Pulse: treatment group difference (from placebo) in mean change (0.75 mg SC, interval 4-8 h, V7): −5.5* | DBP: treatment group difference (from placebo) in mean change (0.75 mg SC, interval 4-8 h, V7): 1.7 | SBP: treatment group difference (from placebo) in mean change (0.75 mg SC, interval 4-8 h, V7): 1.6 | HR-BP Product: treatment group difference (from placebo) in mean change (0.75 mg SC, interval 4-8 h, V7): −503.3* | Pulse: treatment group difference (from placebo) in mean change [3]: −0.4 | DBP: treatment group difference (from placebo) in mean change [3]: 1.0 | SBP: treatment group difference (from placebo) in mean change [3]: 0.9 | HR-BP Product: treatment group difference (from placebo) in mean change [3]: 5.2 | Pulse: treatment group difference (from placebo) in mean change [4]: 0.1 | DBP: treatment group difference (from placebo) in mean change [4]: 1.3* | SBP: treatment group difference (from placebo) in mean change [4]: 1.6 | HR-BP Product: treatment group difference (from placebo) in mean change [4]: 114.9 | Pulse: treatment group difference (from placebo) in mean change (1.25 mg SC, interval 0-4 h, V5): −5.2* | DBP: treatment group difference (from placebo) in mean change (1.25 mg SC, interval 0-4 h, V5): 3.0* | SBP: treatment group difference (from placebo) in mean change (1.25 mg SC, interval 0-4 h, V5): 2.4* | HR-BP Product: treatment group difference (from placebo) in mean change (1.25 mg SC, interval 0-4 h, V5): −436.4* | Pulse: treatment group difference (from placebo) in mean change (1.25 mg SC, interval 0-4 h, V7): −6.1* | DBP: treatment group difference (from placebo) in mean change (1.25 mg SC, interval 0-4 h, V7): 2.2* | SBP: treatment group difference (from placebo) in mean change (1.25 mg SC, interval 0-4 h, V7): 2.1* | HR-BP Product: treatment group difference (from placebo) in mean change (1.25 mg SC, interval 0-4 h, V7): −583.3* | Pulse: treatment group difference (from placebo) in mean change [5]: −2.9* | DBP: treatment group difference (from placebo) in mean change [5]: 1.9* | SBP: treatment group difference (from placebo) in mean change [5]: 1.1 | HR-BP Product: treatment group difference (from placebo) in mean change [5]: −265.9 | Pulse: treatment group difference (from placebo) in mean change [6]: −2.6* | DBP: treatment group difference (from placebo) in mean change [6]: 1.7* | SBP: treatment group difference (from placebo) in mean change [6]: 1.6* | HR-BP Product: treatment group difference (from placebo) in mean change [6]: −206.5 | Pulse: treatment group difference (from placebo) in mean change (1.25 mg SC, interval 4-8 h, V5): −6.1* | DBP: treatment group difference (from placebo) in mean change (1.25 mg SC, interval 4-8 h, V5): 2.2* | SBP: treatment group difference (from placebo) in mean change (1.25 mg SC, interval 4-8 h, V5): 1.4 | HR-BP Product: treatment group difference (from placebo) in mean change (1.25 mg SC, interval 4-8 h, V5): −621.0* | Pulse: treatment group difference (from placebo) in mean change (1.25 mg SC, interval 4-8 h, V7): −6.5* | DBP: treatment group difference (from placebo) in mean change (1.25 mg SC, interval 4-8 h, V7): 0.9 | SBP: treatment group difference (from placebo) in mean change (1.25 mg SC, interval 4-8 h, V7): 1.3* | HR-BP Product: treatment group difference (from placebo) in mean change (1.25 mg SC, interval 4-8 h, V7): −669.7* | Pulse: treatment group difference (from placebo) in mean change [7]: −1.5 | DBP: treatment group difference (from placebo) in mean change [7]: 1.4* | SBP: treatment group difference (from placebo) in mean change [7]: 0.7 | HR-BP Product: treatment group difference (from placebo) in mean change [7]: −127.4 | Pulse: treatment group difference (from placebo) in mean change [8]: −0.7 | DBP: treatment group difference (from placebo) in mean change [8]: 1.7* | SBP: treatment group difference (from placebo) in mean change [8]: 1.5* | HR-BP Product: treatment group difference (from placebo) in mean change [8]: 4.2 | Pulse: treatment group difference (from placebo) in mean change (1.75 mg SC, interval 0-4 h, V5): −4.6* | DBP: treatment group difference (from placebo) in mean change (1.75 mg SC, interval 0-4 h, V5): 3.2* | SBP: treatment group difference (from placebo) in mean change (1.75 mg SC, interval 0-4 h, V5): 3.1* | HR-BP Product: treatment group difference (from placebo) in mean change (1.75 mg SC, interval 0-4 h, V5): −305.9 | Pulse: treatment group difference (from placebo) in mean change (1.75 mg SC, interval 0-4 h, V7): −4.7* | DBP: treatment group difference (from placebo) in mean change (1.75 mg SC, interval 0-4 h, V7): 2.6* | SBP: treatment group difference (from placebo) in mean change (1.75 mg SC, interval 0-4 h, V7): 2.5* | HR-BP Product: treatment group difference (from placebo) in mean change (1.75 mg SC, interval 0-4 h, V7): −375.4* | Pulse: treatment group difference (from placebo) in mean change [9]: −2.2* | DBP: treatment group difference (from placebo) in mean change [9]: 1.9* | SBP: treatment group difference (from placebo) in mean change [9]: 1.6 | HR-BP Product: treatment group difference (from placebo) in mean change [9]: −139.1 | Pulse: treatment group difference (from placebo) in mean change [10]: −2.2* | DBP: treatment group difference (from placebo) in mean change [10]: 1.8* | SBP: treatment group difference (from placebo) in mean change [10]: 1.3 | HR-BP Product: treatment group difference (from placebo) in mean change [10]: −184.1 | Pulse: treatment group difference (from placebo) in mean change (1.75 mg SC, interval 4-8 h, V5): −6.6* | DBP: treatment group difference (from placebo) in mean change (1.75 mg SC, interval 4-8 h, V5): 2.3* | SBP: treatment group difference (from placebo) in mean change (1.75 mg SC, interval 4-8 h, V5): 2.1 | HR-BP Product: treatment group difference (from placebo) in mean change (1.75 mg SC, interval 4-8 h, V5): −608.1* | Pulse: treatment group difference (from placebo) in mean change (1.75 mg SC, interval 4-8 h, V7): −6.6* | DBP: treatment group difference (from placebo) in mean change (1.75 mg SC, interval 4-8 h, V7): 2.2* | SBP: treatment group difference (from placebo) in mean change (1.75 mg SC, interval 4-8 h, V7): 2.2 | HR-BP Product: treatment group difference (from placebo) in mean change (1.75 mg SC, interval 4-8 h, V7): −624.5* | Pulse: treatment group difference (from placebo) in mean change [11]: −0.8 | DBP: treatment group difference (from placebo) in mean change [11]: 1.4* | SBP: treatment group difference (from placebo) in mean change [11]: 0.9 | HR-BP Product: treatment group difference (from placebo) in mean change [11]: −23.7 | Pulse: treatment group difference (from placebo) in mean change [12]: −0.5 | DBP: treatment group difference (from placebo) in mean change [12]: 1.4 | SBP: treatment group difference (from placebo) in mean change [12]: 0.6 | HR-BP Product: treatment group difference (from placebo) in mean change [12]: −31.3 | maximal change in systolic pressure (1.75 mg dosing group, average of Visits 5 and 7): 3.15 mm Hg | change in blood pressure (drug treated subjects, predominantly within 4 hours of dosing): ~2 mm Hg
